Source: US9827312B2, “Method for carrying therapeutic substances into cells” (MAGFORCE AG, priority 2005, dated 2017)

Legend:
Details in all cases: procedure of example 2
rectal carcinoma cells = test: Increase in the activity of cytostatics with nanoparticles (Table 1), rectal carcinoma; format: cell-based
Protocol: (§1) The experiments in vitro were carried out with the cell lines BT20 (breast carcinoma) and WiDr (colon carcinoma). The tumor cells were taken from tumor tissue of a patient and cultivated as described in DE 199 12 798 C1. 2×10^6 cells, respectively, were prepared in a 75 cm^3 cell culture bottle with 25 ml of cell culture medium (RPMI+10% FBS+1.2 ml of pyruvate for WiDr cells, or respectively BME+10% FBS+pyruvate+5 ml of non-essential amino acids+5 ml glutamine for BT20 cells) for testing the efficacy of the cefamandole/nanoparticle mixture. 136 μl of magnetic fluid MFL AS M01 (iron oxide nanoparticle coated with polycondensed N-(2-aminoethyl)-3-(trimethoxysilyl)propylamine, manufacturer: MagForce Nanotechnologies GmbH, Berlin, Germany) (cFe=2 mol/l) and 390 μl of cefamandole solution (stock solution 1 mg/ml in 0.9% NaCl) were added to said cell suspension.
(§2) Corresponding to the experiment procedure according to example 2, the following […] were tested in vitro with the active ingredients listed in table 1: a) glioblastoma human cell line RUSIRS 1; b) breast carcinoma cell lines BT20; c) colon carcinoma cell line WiDR; d) bronchial carcinoma cells NSCLC, e) rectal carcinoma cells and f) prostate carcinoma cell line DU 145.
(§3) In all cases, an increased activity of the cytostatic could be observed. The increase in activity is indicated in parentheses after the respective cytostatic, wherein (+) means an increase of about 5% to 80% and (++) means an increase of 80% to 500%.

[1] = tested on: colon carcinoma cell line WiDr; test: Increase in the activity of cytostatics with nanoparticles (Table 1), WiDr; format: cell-based, human
Protocol: as §1, §2, §3

[2] = tested on: prostate carcinoma cell line DU 145; test: Increase in the activity of cytostatics with nanoparticles (Table 1), DU 145; format: cell-based
Protocol: as §1, §2, §3

[3] = tested on: bronchial carcinoma cells NSCLC; test: Increase in the activity of cytostatics with nanoparticles (Table 1), NSCLC; format: cell-based
Protocol: as §1, §2, §3

neuroglioma cell line H4 = test: Increase in the activity of cytostatics with nanoparticles (Table 1), H4; format: cell-based
Protocol: as §1, §2, §3

[4] = tested on: glioblastoma human cell line RUSIRS1; test: Increase in the activity of cytostatics with nanoparticles (Table 1), RUSIRS1; format: cell-based
Protocol: as §1, §2, §3

[5] = tested on: breast carcinoma cell lines BT20; test: Increase in the activity of cytostatics with nanoparticles (Table 1), BT20; format: cell-based, human
Protocol: as §1, §2, §3

Structure (SMILES)	increase in the activity of cytostatics (rectal carcinoma cells)	increase in the activity of cytostatics [1]	increase in the activity of cytostatics [2]	increase in the activity of cytostatics [3]	increase in the activity of cytostatics (neuroglioma cell line H4)	increase in the activity of cytostatics [4]	increase in the activity of cytostatics [5]
O=C(O)Cc1ccccc1Nc1c(Cl)cccc1Cl [diclofenac]	(++) ((++) means an increase of 80% to 500%)	(+) ((+) means an increase of about 5% to 80%)	(+) ((+) means an increase of about 5% to 80%)	(+) ((+) means an increase of about 5% to 80%)	(+) ((+) means an increase of about 5% to 80%)	(+) ((+) means an increase of about 5% to 80%)	
CCC(C)(C)C(=O)O[C@H]1C[C@@H](C)C=C2C=C[C@H](C)[C@H](CC[C@@H]3C[C@@H](O)CC(=O)O3)[C@H]21 [simvastatin]	(+) ((+) means an increase of about 5% to 80%)	(+) ((+) means an increase of about 5% to 80%)	(+) ((+) means an increase of about 5% to 80%)	(++) ((++) means an increase of 80% to 500%)	(+) ((+) means an increase of about 5% to 80%)	(+) ((+) means an increase of about 5% to 80%)	(+) ((+) means an increase of about 5% to 80%)
CC(=O)[C@]1(O)Cc2c(O)c3c(c(O)c2[C@@H](O[C@H]2C[C@H](N)[C@H](O)[C@H](C)O2)C1)C(=O)c1ccccc1C3=O [idarubicin]	(+) ((+) means an increase of about 5% to 80%)	(+) ((+) means an increase of about 5% to 80%)	(+) ((+) means an increase of about 5% to 80%)	(++) ((++) means an increase of 80% to 500%)	(+) ((+) means an increase of about 5% to 80%)	(++) ((++) means an increase of 80% to 500%)	(+) ((+) means an increase of about 5% to 80%)
CC/C(=C(\c1ccccc1)c1ccc(OCCN(C)C)cc1)c1ccccc1 [tamoxifen]		(++) ((++) means an increase of 80% to 500%)	(+) ((+) means an increase of about 5% to 80%)	(+) ((+) means an increase of about 5% to 80%)	(+) ((+) means an increase of about 5% to 80%)	(+) ((+) means an increase of about 5% to 80%)	(+) ((+) means an increase of about 5% to 80%)
Cc1onc(-c2ccccc2)c1C(=O)N[C@@H]1C(=O)N2[C@@H]1SC(C)(C)[C@@H]2C(=O)O [oxacillin]	(+) ((+) means an increase of about 5% to 80%)	(++) ((++) means an increase of 80% to 500%)	(++) ((++) means an increase of 80% to 500%)	(+) ((+) means an increase of about 5% to 80%)	(+) ((+) means an increase of about 5% to 80%)	(+) ((+) means an increase of about 5% to 80%)	(+) ((+) means an increase of about 5% to 80%)
Cc1oncc1C(=O)Nc1ccc(C(F)(F)F)cc1 [leflunomide]	(+) ((+) means an increase of about 5% to 80%)	(+) ((+) means an increase of about 5% to 80%)	(+) ((+) means an increase of about 5% to 80%)	(+) ((+) means an increase of about 5% to 80%)	(+) ((+) means an increase of about 5% to 80%)	(+) ((+) means an increase of about 5% to 80%)	(+) ((+) means an increase of about 5% to 80%)
N.N.[Cl][Pt][Cl] [cisplatin]	(+) ((+) means an increase of about 5% to 80%)	(+) ((+) means an increase of about 5% to 80%)	(+) ((+) means an increase of about 5% to 80%)	(++) ((++) means an increase of 80% to 500%)	(++) ((++) means an increase of 80% to 500%)	(+) ((+) means an increase of about 5% to 80%)	(+) ((+) means an increase of about 5% to 80%)
COC(=O)C1=C(C)NC(C)=C(C(=O)OC)C1c1ccccc1[N+](=O)[O-] [nifedipine]		(+) ((+) means an increase of about 5% to 80%)	(+) ((+) means an increase of about 5% to 80%)	(+) ((+) means an increase of about 5% to 80%)	(+) ((+) means an increase of about 5% to 80%)	(+) ((+) means an increase of about 5% to 80%)	(+) ((+) means an increase of about 5% to 80%)
CN(C)[C@@H]1C(O)=C(C(N)=O)C(=O)[C@@]2(O)C(O)=C3C(=O)c4c(O)cccc4[C@@](C)(O)[C@H]3C[C@@H]12 [tetracycline]	(++) ((++) means an increase of 80% to 500%)	(+) ((+) means an increase of about 5% to 80%)	(++) ((++) means an increase of 80% to 500%)	(+) ((+) means an increase of about 5% to 80%)	(+) ((+) means an increase of about 5% to 80%)	(+) ((+) means an increase of about 5% to 80%)	(+) ((+) means an increase of about 5% to 80%)
C=CC[C@@H]1/C=C(\C)C[C@H](C)C[C@H](OC)[C@H]2O[C@@](O)(C(=O)C(=O)N3CCCC[C@H]3C(=O)O[C@H](/C(C)=C/[C@@H]3CC[C@@H](O)[C@H](OC)C3)[C@H](C)[C@@H](O)CC1=O)[C@H](C)C[C@@H]2OC [tacrolimus]	(+) ((+) means an increase of about 5% to 80%)		(+) ((+) means an increase of about 5% to 80%)	(+) ((+) means an increase of about 5% to 80%)	(++) ((++) means an increase of 80% to 500%)	(+) ((+) means an increase of about 5% to 80%)	(+) ((+) means an increase of about 5% to 80%)
CN1CCCC(n2nc(Cc3ccc(Cl)cc3)c3ccccc3c2=O)CC1 (centres unmarked) [azelastine]	(+) ((+) means an increase of about 5% to 80%)		(+) ((+) means an increase of about 5% to 80%)		(+) ((+) means an increase of about 5% to 80%)	(+) ((+) means an increase of about 5% to 80%)	(+) ((+) means an increase of about 5% to 80%)
Nc1nc(Cl)nc2c1ncn2[C@H]1C[C@H](O)[C@@H](CO)O1 [cladribine]		(++) ((++) means an increase of 80% to 500%)	(+) ((+) means an increase of about 5% to 80%)	(++) ((++) means an increase of 80% to 500%)	(+) ((+) means an increase of about 5% to 80%)	(+) ((+) means an increase of about 5% to 80%)	(+) ((+) means an increase of about 5% to 80%)
Cn1c(CCCC(=O)O)nc2cc(N(CCCl)CCCl)ccc21 [bendamustine]			(+) ((+) means an increase of about 5% to 80%)	(+) ((+) means an increase of about 5% to 80%)		(+) ((+) means an increase of about 5% to 80%)	(+) ((+) means an increase of about 5% to 80%)
CC[C@@H]1/C=C(\C)C[C@H](C)C[C@H](OC)[C@H]2O[C@@](O)(C(=O)C(=O)N3CCCC[C@H]3C(=O)O[C@H](/C(C)=C/[C@@H]3CC[C@@H](O)[C@H](OC)C3)[C@H](C)[C@@H](O)CC1=O)[C@H](C)C[C@@H]2OC [ascomycin]	(+) ((+) means an increase of about 5% to 80%)	(+) ((+) means an increase of about 5% to 80%)	(+) ((+) means an increase of about 5% to 80%)	(+) ((+) means an increase of about 5% to 80%)		(++) ((++) means an increase of 80% to 500%)	(+) ((+) means an increase of about 5% to 80%)
CS(=O)(=O)OCCCCOS(C)(=O)=O [busulfan]		(+) ((+) means an increase of about 5% to 80%)	(+) ((+) means an increase of about 5% to 80%)	(++) ((++) means an increase of 80% to 500%)	(+) ((+) means an increase of about 5% to 80%)	(+) ((+) means an increase of about 5% to 80%)	
